EP0450066B1, “CARBOSTYRIL DERIVATIVES” (OTSUKA PHARMACEUTICAL CO., LTD., priority 1988, dated 1989)
Where a name gives a salt, the structure may show the parent alone. Read-outs that look alike come from different tables or passages of the source.

What was measured:
platelets = assay: Platelet aggregation inhibitory activity (method by Born et al., platelet rich plasma, ADP or collagen as inducer); assay type: cell-based; conditions: rabbit PRP, 400,000 platelets/µl, 37°C
Procedure: This sample was subjected to centrifugation at 1,100 rpm for 10 minutes to obtain a platelet rich plasma (PRP). The remaining sample was subjected to further centrifugation at 3,000 rpm for 15 minutes to obtain a platelet poor plasma (PPP).
The number of platelets in the PRP obtained above was counted by coulter Counter manufactured by Coulter Electronics Inc. Then, the PRP was diluted with the PPP so that the number of platelets in the PRP after dilution became 400,000 platelets/µl, whereby a PRP solution was prepared.
There were placed in a cell for aggregation determination, 2 µl of a solution containing a test compound at a given concentration and 200 µl of the PRP solution prepared above. The cell was heated at 37°C for 1 minute. Then, to the cell contents was added 20 µl of adenosine diphosphate (ADP, manufactured by Sigma Co.) or 20 µl of a collagen suspension (Collagen Reagent Horm, manufactured by Hormon-Chemie Co.) to induce aggregation of platelets. Then, the platelet aggregation was determined for change in transmittance, and a platelet aggregation curve was drawn.
The mixture aggregation rate (MAR) of platelets was calculated from the platelet aggregation curve, using the following formula.
In the above, MAR was calculated also for a control containing no test compound. Using this MAR as a base, the platelet aggregation inhibitions rate (%) of each test compound at various concentrations were calculated from the following formula. Inhibition rate (%) = [1-(MAR of test compound-containing PRP)/(MAR of test compound-free PRP)] x100 [formula]

mongrel dogs = assay: Increase in heart rate in anesthetized mongrel dogs; assay type: in vivo; conditions: mongrel dogs under pentobarbital sodium anesthesia, artificial breathing; 30 µg/kg through cannula in femoral artery
Procedure: Increase in heart rate as well as hypotensive activity of test compounds were measured as follows by using mongrel dogs (body weight = 10-20 kg). That is, mongrel dogs were put under anesthesia by intravenous administration of pentobarbital sodium, then fixed at the back position, and subjected to testing under artificial breathing condition. Blood pressure was measured by using a blood pressure transducer (P23XL, manufactured by Gould Statham Instruments, Inc.) via a cannula inserted into the femoral artery of the mongrel dog. Heart rate was measured via a tachometer, based on the pulse wave of the blood pressure. These signals were recorded on a thermal-pen type recorder (Recti-Horiz 8K, manufactured by Nihon Denki San-ei).
The test compounds mentioned in the Pharmacological Test I were also used as test compounds in this Test-II. Each of them was dissolved in a mixed solution of N,N'-dimenthylformamide and a physiological saline solution, and each resulting solution was administered to the test dogs through the cannulas inserted into their femoral arteries, in an amount of 30 µg (test compound)/kg of body weight. The heart rate of each dog after the administration of test compound was measured as mentioned above, whereby the maximum increase in heart rate was obtained.

[1] = Oryctolagus cuniculus, Platelet, aggregation induced by ADP, final concentration 7.5 µM, read-out: IC50 (µM) ADP
[2] = Oryctolagus cuniculus, Platelet, aggregation induced by collagen, final concentration 20 µg/ml, read-out: IC50 (µM) Collagen
[3] = aggregation induced by ADP, final concentration 7.5 µM, read-out: IC50 (µM) ADP
[4] = aggregation induced by collagen, final concentration 20 µg/ml, read-out: IC50 (µM) Collagen

Molecule	IC50 (platelets; [1]) [µM]	IC50 (platelets; [2]) [µM]	IC50 (platelets; [3]) [µM]	IC50 (platelets; [4]) [µM]	Maximum increase in heart rate (beats/min) (Administration amount = 30 µg/kg) (mongrel dogs)	further results
CSCCC(COC(C)=O)N(CC1CCCCC1)C(=O)CCCCOc1ccc2[nH]c(=O)ccc2c1 (stereo not drawn) [Example 47]	0.63	0.49	–	–	–	–
CC(=O)NCCN(CC1CCCCCCC1)C(=O)CCCCOc1ccc2[nH]c(=O)ccc2c1 [Test compound 24, 6-{4-[N-cyclooctylmethyl-N-(2-acetylaminoethyl)-aminocarbonyl]butoxy}carbostyril]	–	–	–	–	–	IC50 (platelets; aggregation induced by ADP, final concentration 7.5 µM, listed as 42, read-out: IC50 (µM) ADP): 1.9 µM; IC50 (platelets; aggregation induced by collagen, final concentration 20 µg/ml, listed as 42, read-out: IC50 (µM) Collagen): 1.6 µM
CC(=O)NCCN(CC1CCCCCCC1)C(=O)CCCCOc1ccc2[nH]c(=O)ccc2c1 [Example 24]	2.2	1.3	–	–	–	–
O=C(CCCCOc1ccc2[nH]c(=O)ccc2c1)N(CCN1CCOCC1)CC1CCCCCCC1 [Example 7]	–	–	1.5	0.65	–	–
CCN(CC)CCN(CC1CCCCCCC1)C(=O)CCCCOc1ccc2c(c1)CCC(=O)N2 [Example 20]	–	–	21.2	7	4	–
6-[4-{N-cyclooctylmethyl-N-[2-(2β-dimethylamino-methyl-1-pyrrolidinyl)ethyl]aminocarbonyl}butoxy]-carbostyril difumarate [Test compound 10]	–	–	3.9	1.8	–	–
O=C(CCCCOc1ccc2[nH]c(=O)ccc2c1)N(CCN1CCC(O)C1)CC1CCCCCCC1.O=C(O)C(=O)O (stereo not drawn) [Example 6]	–	–	3.5	1.3	5	–
CSCCC(CO)N(CC1CCCCC1)C(=O)CCCCOc1ccc2[nH]c(=O)ccc2c1 (stereo not drawn) [Example 46]	1.1	0.53	–	–	–	–
CCN(CC)CCN(CC1CCCCCCC1)C(=O)CCCCOc1ccc2[nH]c(=O)ccc2c1 [Example 16]	3	1.1	–	–	7	–
CCN(CC)CCN(CC1CCCCCCC1)C(=O)CCCCOc1ccc2c(c1)CCC(=O)N2 [Test compound 20, 6-{4-[N-cyclooctylmethyl-N-(2-diethylaminoethyl)-aminocarbonyl]butoxy}3,4-dihydrocarbostyril oxalate]	–	–	–	–	–	IC50 (platelets; aggregation induced by ADP, final concentration 7.5 µM, listed as 34, oxalate, read-out: IC50 (µM) ADP): 0.84 µM; IC50 (platelets; aggregation induced by collagen, final concentration 20 µg/ml, listed as 34, oxalate, read-out: IC50 (µM) Collagen): 0.48 µM
CCN(CC)C[C@H](C)N(CC1CCCCCCC1)C(=O)CCCCOc1ccc2[nH]c(=O)ccc2c1 [Example 21]	5.4	3.2	–	–	7	–
CC1CCCC(C)N1CCN(CC1CCCCCCC1)C(=O)CCCCOc1ccc2[nH]c(=O)ccc2c1 (stereo not drawn) [Example 9]	–	–	4.5	1.6	0	–
CCN(CC)CCCN(CC1CCCCCCC1)C(=O)CCCCOc1ccc2[nH]c(=O)ccc2c1 [Example 17]	5	–	–	2.8	–	–
O=C(CCCCOc1ccc2[nH]c(=O)ccc2c1)N(CCn1ccnc1)CC1CCCCC1 [Example 12]	–	–	6	3.2	12	–
CCN(CC)CCCCN(CC1CCCCCCC1)C(=O)CCCCOc1ccc2[nH]c(=O)ccc2c1 [Example 18]	6	4.8	–	–	5	–
CCN(CC)C[C@H](CO)N(CC1CCCCCCC1)C(=O)CCCCOc1ccc2[nH]c(=O)ccc2c1 [Example 22]	1.2	0.8	–	–	–	–
CCN(CC)CCCCN(CC1CCCCCCC1)C(=O)CCCCOc1ccc2[nH]c(=O)ccc2c1.O=C(O)C(=O)O [Test compound 18, 6-{4-[N-cyclooctylmethyl-N-(4-diethylaminobutyl)-aminocarbonyl]butoxy}carbostyril oxalate]	–	–	–	–	2	IC50 (platelets; aggregation induced by ADP, final concentration 7.5 µM, listed as 29, oxalate, read-out: IC50 (µM) ADP): 8.3 µM; IC50 (platelets; aggregation induced by collagen, final concentration 20 µg/ml, listed as 29, oxalate, read-out: IC50 (µM) Collagen): 3.7 µM
6-[4-{N-cyclohexylmethyl-N-[2-(1-pyrrolidinyl)-ethyl]aminocarbonyl}butoxy]carbostyril [Example 1]	–	–	3.4	1.1	–	–
CCN(CC)CCCN(CC1CCCCCCC1)C(=O)CCCCOc1ccc2[nH]c(=O)ccc2c1 [Test compound 17, 6-{4-[N-cyclooctylmethyl-N-(3-diethylaminopropyl)-aminocarbonyl]butoxy}carbostyril oxalate]	–	–	–	–	–	IC50 (platelets; aggregation induced by ADP, final concentration 7.5 µM, listed as 28, oxalate, read-out: IC50 (µM) ADP): 2.8 µM; IC50 (platelets; aggregation induced by collagen, final concentration 20 µg/ml, listed as 28, oxalate, read-out: IC50 (µM) Collagen): 1.2 µM
O=C(CCCCOc1ccc2[nH]c(=O)ccc2c1)N(CCS)CC1CCCCC1 [Example 44]	5	3.6	–	–	11	–
O=C(CCCCOc1ccc2[nH]c(=O)ccc2c1)N(CCN1CCCCC1CO)CC1CCCCCCC1 (stereo not drawn) [Example 4]	–	–	2.7	1.6	6	–
O=C(CCCCOc1ccc2[nH]c(=O)ccc2c1)N(CCN1CCC(O)C1)CC1CCCCCCC1 (stereo not drawn) [Test compound 6, 6-[4-{N-cyclooctylmethyl-N-[2-(3-hydroxy-1-pyrrolidinyl)ethyl]aminocarbonyl}butoxy]carbostyril oxalate]	1.7	0.5	–	–	–	–
O=C(CCCCOc1ccc2[nH]c(=O)ccc2c1)N(CCN1CCC(O)CC1)CC1CCCCCCC1 [Test compound 8, 6-[4-{N-cyclooctylmethyl-N-[2-(4-hydroxy-1-piperidinyl)ethyl]aminocarbonyl}butoxy]carbostyril]	1.7	0.7	–	–	–	–
6-[4-(N-cyclooctylmethyl-N-diethylamidomethyl)-aminocarbonyl]butoxy}carbostyril [Test compound 19]	–	–	2.1	1.3	–	–
CCN(CCO)CCN(CC1CCCCCCC1)C(=O)CCCCOc1ccc2[nH]c(=O)ccc2c1 [Example 25]	2.1	1.4	–	–	–	–
O=C(CCCCOc1ccc2[nH]c(=O)ccc2c1)N(CCSC1CCCCO1)CC1CCCCC1 (stereo not drawn) [Example 45]	2.2	2.2	–	–	–	–
CCN(CC)C(=O)CN(CC1CCCCCCC1)C(=O)CCCCOc1ccc2[nH]c(=O)ccc2c1 [Example 19]	1.5	0.71	–	–	–	–
C=CCN(CC)CCN(CC1CCCCCCC1)C(=O)CCCCOc1ccc2[nH]c(=O)ccc2c1 [Example 26]	3.6	1.3	–	–	–	–
